The target of test [1] is Phosphatidylinositol 4,5-bisphosphate 3-kinase catalytic subunit alpha isoform (Homo sapiens, UniProt P42336). Kind of test: Inhibition of PI3Kalpha using [gamma32P]ATP by radiometric kinase assay.
In test [2] the target is T1, Dual specificity mitogen-activated protein kinase kinase 1 (Homo sapiens, UniProt Q02750). Kind of test: Inhibition of MEK1 at 10 uM using [gamma32P]ATP by radiometric kinase assay.
The target of test [3] is T1, Dual specificity mitogen-activated protein kinase kinase 1. Description: Inhibition of MEK1 using [gamma32P]ATP by radiometric kinase assay.
Test [4] concerns the target Dual specificity mitogen-activated protein kinase kinase 2 (Homo sapiens, UniProt P36507). Kind of test: Inhibition of MEK2 using [gamma32P]ATP by radiometric kinase assay.

Broadly, the IC50 is the concentration that gives 50% inhibition. Read a low IC50 as greater potency in that assay. A word on the inhibition: it is the change of the read-out against control, counted positive when it falls.

Each structure is given as a SMILES string.

Chain of Phosphatidylinositol 4,5-bisphosphate 3-kinase catalytic subunit alpha isoform (P42336 whole entry, canonical isoform): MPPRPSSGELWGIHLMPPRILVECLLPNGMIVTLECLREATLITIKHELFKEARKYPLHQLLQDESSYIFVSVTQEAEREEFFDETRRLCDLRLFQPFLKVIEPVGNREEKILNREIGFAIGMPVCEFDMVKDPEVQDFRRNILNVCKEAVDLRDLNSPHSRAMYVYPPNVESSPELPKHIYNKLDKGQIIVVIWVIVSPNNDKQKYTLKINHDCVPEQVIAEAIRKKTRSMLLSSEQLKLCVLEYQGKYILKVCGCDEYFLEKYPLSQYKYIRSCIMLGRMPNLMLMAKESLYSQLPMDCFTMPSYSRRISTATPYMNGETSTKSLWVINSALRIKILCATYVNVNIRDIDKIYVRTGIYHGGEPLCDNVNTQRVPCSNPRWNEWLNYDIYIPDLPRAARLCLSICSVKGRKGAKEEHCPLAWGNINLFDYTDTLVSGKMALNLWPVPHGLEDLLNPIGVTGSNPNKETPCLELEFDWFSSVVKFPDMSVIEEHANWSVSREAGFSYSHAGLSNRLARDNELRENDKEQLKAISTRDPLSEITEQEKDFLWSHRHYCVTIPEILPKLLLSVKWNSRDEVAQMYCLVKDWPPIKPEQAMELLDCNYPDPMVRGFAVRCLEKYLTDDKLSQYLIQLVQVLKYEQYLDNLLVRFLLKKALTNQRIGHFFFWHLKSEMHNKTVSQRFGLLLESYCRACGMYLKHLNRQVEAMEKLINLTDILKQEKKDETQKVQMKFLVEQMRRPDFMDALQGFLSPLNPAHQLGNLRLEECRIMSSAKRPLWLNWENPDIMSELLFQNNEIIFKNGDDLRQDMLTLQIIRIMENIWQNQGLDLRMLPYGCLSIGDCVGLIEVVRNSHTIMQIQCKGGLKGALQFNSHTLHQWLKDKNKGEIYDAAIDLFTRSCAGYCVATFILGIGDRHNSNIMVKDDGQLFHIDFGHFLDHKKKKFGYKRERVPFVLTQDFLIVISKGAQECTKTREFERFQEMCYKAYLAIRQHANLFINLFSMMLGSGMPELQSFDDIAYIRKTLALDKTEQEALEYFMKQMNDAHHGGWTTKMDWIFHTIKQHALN
T1 sequence (Q02750 whole entry): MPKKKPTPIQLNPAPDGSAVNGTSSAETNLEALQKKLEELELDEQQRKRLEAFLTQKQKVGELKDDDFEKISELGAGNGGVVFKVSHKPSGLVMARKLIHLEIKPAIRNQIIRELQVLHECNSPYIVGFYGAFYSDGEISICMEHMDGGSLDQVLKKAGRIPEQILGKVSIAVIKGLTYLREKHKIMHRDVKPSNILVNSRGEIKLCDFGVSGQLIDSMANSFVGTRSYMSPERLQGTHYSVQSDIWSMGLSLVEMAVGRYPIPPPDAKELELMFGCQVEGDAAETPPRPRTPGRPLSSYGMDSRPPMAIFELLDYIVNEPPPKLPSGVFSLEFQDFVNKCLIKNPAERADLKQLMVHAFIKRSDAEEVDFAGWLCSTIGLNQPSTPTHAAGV
Chain of Dual specificity mitogen-activated protein kinase kinase 2 (P36507 whole entry): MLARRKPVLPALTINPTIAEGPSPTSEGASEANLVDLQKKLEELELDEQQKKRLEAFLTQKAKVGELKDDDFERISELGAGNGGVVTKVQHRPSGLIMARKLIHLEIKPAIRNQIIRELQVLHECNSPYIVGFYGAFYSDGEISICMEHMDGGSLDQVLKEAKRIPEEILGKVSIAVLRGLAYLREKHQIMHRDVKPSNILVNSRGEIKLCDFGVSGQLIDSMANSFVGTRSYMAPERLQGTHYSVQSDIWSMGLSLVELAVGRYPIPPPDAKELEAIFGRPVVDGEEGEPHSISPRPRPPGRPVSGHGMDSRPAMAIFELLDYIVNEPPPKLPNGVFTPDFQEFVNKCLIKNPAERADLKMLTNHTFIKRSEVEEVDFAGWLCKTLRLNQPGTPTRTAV

As to `N=C1/C(=C\c2coc3ccccc3c2=O)C(=O)N=C2SC(c3ccc(O)cc3)=NN12`, the IC50 in test [1] was determined as 10.2 µM; in test [3], 8.5 µM. The inhibition in test [2] is over 30%.
Take `O=C(O)c1cccc(N2C(=O)/C(=C\c3cnc4ccccc4n3)SC2=S)c1`: the results for the IC50 in test [1] and in test [3] were over 30 µM and 23.1 µM, respectively. In test [2], this compound returned an inhibition of over 30%.
Turning to `N=C1/C(=C\c2ccc(O)c(O)c2)C(=O)N=C2SC(c3ccc(O)cc3)=NN12`, the IC50 in test [1] came to 0.3 µM; in test [4], 1.3 µM; in test [3], 2.2 µM. This compound displayed an inhibition in test [2] of over 30%.
`OCCNc1ncnc2oc(-c3ccccc3)c(-c3ccccc3)c12`: the IC50 was over 30 µM in test [1] and 12.3 µM in test [3]. In addition, the inhibition in test [2] was over 30%.

The values are drawn from ChEMBL document CHEMBL2057136, “Discovery of MEK/PI3K dual inhibitor via structure-based virtual screening” (Bioorg Med Chem Lett, 2012).
